According to US20240181125A1, “COMPOSITIONS AND METHODS FOR SCARLESS WOUND HEALING IN DIABETES” (Washington University, priority 2022, published 2024):
Bridge positions count the residues as written; N and C are the ends. Peptide text beside a SMILES is read from it. * marks the point of attachment. FITC = O=C1OC2(c3ccc(O)cc3Oc3cc(O)ccc32)c2ccc(NC(=S)*)cc21

Assays:
HaCaTs [1] = assay: Cell proliferation (dsDNA) under high glucose and TGFβ1, HaCaT; assay type: cell-based, human; details: high glucose, TGFβ1 10 ng/ml, PTβR2I 10 μg/mL; p<0.05
Description: (§1) HDFs, HaCaTs, and HAECs were seeded in 96-well plates at respective densities of 1.5×10^4 cells/mL, 2×10^4 cells/mL, and 2×10^4 cells/mL. High glucose (4.5 g/L) basal medium with 1% P/S was used for the culture. After 24 hours, TGFβ1 (10 ng/ml) or TGFβ1 (10 ng/ml)/PTβR2I (10 μg/mL) was added to the medium. The culture continued for three days. The medium was then replaced by papain solution and incubated at 60° C. for 24 hours. The dsDNA content was tested using a Quant-iT™ PicoGreen dsDNA Assay Kit (Invitrogen).

HDFs = assay: 2D scratch migration assay, HDF; assay type: cell-based, human; details: high glucose and TGFβ1, 72 hours
Description: (§2) HDFs, HaCaTs, and HAECs were cultured in 6-well plates using serum-free high glucose (4.5 g/L) basal medium with 1% P/S. After the cells reached confluency, a 200-μL pipet tip was used to scrape the cell monolayer. Then 3 mL of medium containing TGFβ1 (10 ng/ml) or TGFβ1 (10 ng/ml)/PTβR2I (10 μg/mL) was added to the wells. The cells were imaged at predetermined time points using a bright-field microscope. The distances between the scratch walls were measured using ImageJ to calculate the migration ratio

HaCaTs [2] = assay: 2D scratch migration assay, HaCaT; assay type: cell-based, human; details: high glucose and TGFβ1, 48 hours
Description: as §2

HAECs = assay: Cell proliferation (dsDNA) under high glucose and TGFβ1, HAEC; assay type: cell-based, human; details: high glucose, TGFβ1 10 ng/ml, PTβR2I 10 μg/mL; p<0.05
Description: as §1

[3] = In vitro release of peptide from hydrogel; assay type: physicochemical; details: 21-day study, 37° C., DPBS; loadings 10, 20, 50 μg/mL
Description: To characterize the ECG release properties of the NIPAAm-based hydrogels disclosed herein, the following experiments were conducted. Hydrogel samples were synthesized with varying levels of ECG loading: 10 μg/mL, 20 μg/mL, and 50 μg/mL. The cumulative release of ECG from the hydrogel samples was assessed over a three-week period.
Wound dressings were fabricated by encapsulating PTβR2I in the hydrogel solution at 4° C. Briefly, PTβR2I solution was mixed with 6 wt. % hydrogel solution to reach final PTβR2I concentrations of 10 μg/mL, 20 μg/mL and 50 μg/mL. The mixtures were stirred at 4° C. for 12 hours. To determine PTβR2I release kinetics, the mixtures were first incubated at 37° C. to gel. After 1 hour, the supernatant was replaced by a release medium (DPBS with 1% P/S). The medium was then collected at pre-determined time points for 21 days, and a fresh release medium was added after each collection. The concentration of the released PTβR2I was determined by measuring the fluorescence intensity and calculating the corresponding concentration using a standard curve. The bioactivity of the released PTβR2I was evaluated by its ability to bind to the TβR2 on the HDFs. […] After 2 hours of incubation, the cells were washed three times with DPBS, and the fluorescence intensity was measured using a microplate reader (excitation/emission=485/535 nm).

TβR2 on HDFs = target: T1, TβR2 on HDFs (Homo sapiens, UniProt P37173); assay: PTβR2I binding and competitive binding with TGFβ1 on HDFs (IF anti-TβR2, FITC intensity); assay type: cell-based; details: 48 hours
T1 construct: host or cells: human dermal fibroblasts (HDFs)
T1 sequence (P37173 23-567): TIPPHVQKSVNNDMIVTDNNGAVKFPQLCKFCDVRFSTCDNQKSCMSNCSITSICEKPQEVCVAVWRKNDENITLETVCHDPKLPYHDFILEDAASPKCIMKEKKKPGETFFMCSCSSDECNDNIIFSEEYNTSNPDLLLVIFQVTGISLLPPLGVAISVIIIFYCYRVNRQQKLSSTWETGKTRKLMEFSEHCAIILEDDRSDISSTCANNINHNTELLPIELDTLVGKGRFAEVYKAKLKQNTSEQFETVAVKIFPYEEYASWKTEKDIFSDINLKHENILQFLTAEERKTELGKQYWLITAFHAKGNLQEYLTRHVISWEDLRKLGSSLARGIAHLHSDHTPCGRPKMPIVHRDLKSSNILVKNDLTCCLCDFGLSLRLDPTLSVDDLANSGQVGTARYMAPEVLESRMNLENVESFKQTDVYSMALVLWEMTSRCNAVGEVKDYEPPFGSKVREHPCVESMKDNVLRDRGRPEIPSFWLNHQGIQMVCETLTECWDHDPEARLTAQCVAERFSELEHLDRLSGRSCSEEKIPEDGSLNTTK
Description: To test PTβR2I binding to cells, HDFs (Lonza) were seeded on type I collagen-coated cover glasses and inserted in a 6-well plate. After 24 hours, the following treatments were added into the wells: 1) PTβR2I solution (10 μg/mL) for 48 hours; 2) PTβR2I solution (10 μg/mL) for 24 hours, and then TGFβ1 (10 ng/ml) for another 24 hours; 3) TGFβ1 (10 ng/mL) for 24 hours, and then PTβR2I (10 μg/mL) for another 24 hours; and 4) both PTβR2I (10 μg/mL) and TGFβ1 (10 ng/ml) for 48 hours. Control wells contained HDF-seeded cover glasses without added PTβR2I or TGFβ1, and incubated for 48 hours. After the treatment, cells were fixed by 4% paraformaldehyde and blocked with 10% goat serum in Dulbecco's phosphate-buffered saline (DPBS). Primary antibody mouse anti-TβR2 (1:300, Santa Cruz) that was diluted in DPBS containing 3% BSA was incubated with the cells overnight at 4° C. The cells were washed three times with DPBS. A secondary antibody Alexa Fluro-647 (1:300, Fisher Scientific) was then applied for 2 h at room temperature, followed by incubating with DAPI (Millipore-Sigma) for five minutes.
To validate the above results, the fluorescence intensity of PTβR2I bound to the HDFs was measured for each treatment. Briefly, HDFs (Lonza) were seeded on type I collagen-coated 96-well black microplates. […] The fluorescence intensity was measured using the same microplate reader.

[4] = tested on: human keratinocyte HaCaT cells; assay: Cytotoxicity of PTβR2I on HaCaT cells; assay type: cell-based; design: dose or concentration left out as unconfirmed; details: 1 to 100
HDF = assay: Cytotoxicity of PTβR2I on dermal fibroblasts; assay type: cell-based, human; design: dose or concentration left out as unconfirmed; details: 1 to 100
TGFβ1/p38 pathway = assay: Immunoblotting of p-p38 in HDFs; assay type: cell-based, human
Description: For in vitro tests, protein lysates were collected from HDFs. Pre-cooled cell scrapers were used to detach the cells, and the cells were re-suspended in RIPA lysis buffer with the inhibitor cocktail. For in vivo tests, wound skin tissues were washed three times with pre-cooled DPBS, dissected into small pieces, and re-suspended in RIPA lysis buffer containing protease and phosphatase inhibitors. Homogenization was then performed thereafter with an ultrasonic processor (Cole Parmer). After centrifugation at 12,000 g for 20 min, the supernatants were collected, and protein concentrations were measured using a Bradford protein assay kit (Bio-rad).
The protein samples were separated by 10% Mini-PROTEAN TGX stain-free precast gels (Bio-rad) and transferred onto an immune-blot PVDF membrane. The blots were washed three times with DPBS containing 0.1% Tween 20 (PBST), blocked with 5% milk powder in PBST buffer for 40 min, and incubated with primary antibodies at specific dilutions overnight at 4° C. The primary antibodies included rabbit GAPDH antibody (1:5000, Cell signaling), rabbit anti-a-smooth muscle actin (α-SMA) antibody (1:2000, Cell signaling), rabbit anti-phospho-Smad2(Ser465/467)/Smad3 (Ser423/425) (1:500, Cell signaling), and rabbit anti-phospho-p38 (1:500, Cell signaling). The membranes were washed three times with PBST and incubated with horseradish peroxidase (HRP)-conjugated secondary antibodies (1:2500). Immunoblots were then washed with PBST and detected with a WesternBright HRP substrate detection kit (Advansta). The ChemiDoc XPS+system (Bio-rad) was used to image the blots.

In the case of CC(C)C[C@@H]1NC(=O)CNC(=O)[C@@H](NC(=O)[C@@H](N)CCC(=O)O)CSSC[C@@H](C(=O)N[C@@H](CCCCNC(=S)Nc2ccc3c(c2)C(=O)OC32c3ccc(O)cc3Oc3cc(O)ccc32)C(=O)O)NC(=O)[C@H](CC(C)C)NC(=O)[C@H](CCCNC(=N)N)NC(=O)[C@H](Cc2c[nH]c3ccccc23)NC(=O)[C@H](C(C)C)NC(=O)[C@H](CCCNC(=N)N)NC(=O)[C@H](CC(=O)O)NC(=O)[C@@H]2CCCN2C(=O)[C@H](CCCNC(=N)N)NC(=O)CNC(=O)[C@H](C(C)C)NC(=O)[C@@H]2CCCN2C(=O)[C@H](CC(C)C)NC1=O [PTβR2I, ECGLLPVGRPDRVWRLCK-FITC] (H-ECGLLPVGRPDRVWRLCK(FITC)-OH; disulfide 2-17; N-terminus and C-terminus assumed), the “proliferation (dsDNA, day 3)” value (HaCaTs [1]) was “Significantly improved proliferation”, the migration (HDFs) was “significantly higher number of cells had migrated” and the migration (HaCaTs [2]) was “significantly higher number of cells had migrated”. The “proliferation (dsDNA, day 3)” value (HAECs) was “Significantly improved proliferation”, the “release profile from wound dressing” value [3] was “initial burst release was observed on the first day, followed by a slower and sustained release until day 21” and the “fluorescent intensities of FITC-labeled PTβR2I whichever of PTβR2I or TGFβ1 bound first” value (TβR2 on HDFs) was “consistent”. For the same compound, the cell viability [4] was “no decrease in viability”, the cell viability (HDF) was “no decrease in viability” and the p-p38 expression (TGFβ1/p38 pathway; high glucose, with TGFβ1) was “significantly downregulated”. For the same compound, the p-p38 (TGFβ1/p38 pathway; normal glucose) was “did not downregulate”.
